Data on 11 compounds can be found in US8426406B2, “Glucocorticoid receptor agonist comprising 2,2,4-trimethyl-6-phenyl-1,2-dihydroquinoline derivatives having substituted oxy group” (Santen Pharmaceutical Co., Ltd., priority 2008, dated 2013).

Broadly, the Emax is the maximal effect, on the per cent scale that the assay sets.

In assay [1] the test system is IL-6 production induced by lipopolysaccharide (LPS) in human corneal epithelial cells. Briefly: Evaluation test for GR agonist activity: inhibition of LPS-induced IL-6 production in human corneal epithelial cells (HCE-T). Format: cell-based. The note with it: Corneal epithelial cell, 10 μL of 100 μM test compound solution per well, 4 hours incubation, efficacy relative to DEX. The essentials: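 SV40-immortalized HCE-T cells were treated with test compound (100 μM solution, stock before dilution into well) plus LPS (1 μg/mL solution, likewise pre-dilution) for 4 hours in 10% FBS-DMEM/F12. IL-6 in supernatants was measured by HTRF. Inhibition was calculated relative to LPS-plus-DMSO and no-LPS controls, and efficacy was expressed as % of DEX inhibition.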

Assay [2] relates to choroidal neovascularization (CNV) model in rats. Briefly: Evaluation test for inhibitory effect of choroidal neovascularization (laser induced CNV model in rats). It is filed as in vivo. Particulars: Brown Norway rats, 1% (w/v) suspension eye drops four times a day or 20 mg/mL subconjunctival injection (route not given), vs vehicle, mean of 7-8 eyes in 4 rats. The protocol: The choroidal neovascularization (CNV) model in rats is known as one of the popular methods for evaluating the CNV inhibitory effect of drugs. This method is reported in Graefe's Arch. Cli. Exp. Ophthalmol., 235, 313-319 (1997). According to this method, the CNV examinations were performed to evaluate the CNV inhibitory effect of test compounds by comparing the incidence rates of CNV in vehicle group (control group) with test compound-treated groups.
For eye drop administration, a 1% (w/v) test compound suspension was prepared by adding 0.5% polysorbate 80/saline to the test compound. For subconjunctival injection, a 20 mg/mL test compound suspension was prepared by adding 0.5% hydrogenated castor oil/saline to the test compound.
1) Brown Norway male rats (7-8 weeks, 140-240 g) were anesthetized with intramuscular injection (1 mL/kg) of the mixed solution (5% ketamine HCl: 2% xylazine HCl=7:1).
2) After mydriasis using tropicamide phenylephrine hydrochloride eye drops (trade name Mydrin P), laser photocoagulation of bruch's membrane in rats was performed with krypton laser photocoagulation machine. Laser irradiation was performed at 8-9 points per eye avoiding thick retinal blood vessels in ocular fundus and focusing on the depth of retina. The conditions were 100 μm spot size, 100 mW power, 0.1 second duration.
3) After laser photocoagulation, photographs of ocular fundus were taken and the laser photocoagulation (laser irradiation) points were confirmed.
1) In case of eye drops administration, a test compound suspension was administrated four times a day from laser irradiation day (the 1st day) to the 8th day. In case of subconjunctival injection, a 50 μL test compound suspension was injected into conjunctivae just after laser irradiation.
2) In vehicle group (control group), 0.5% polysorbate 80/saline or 0.5% hydrogenated castor oil/saline was used instead of a test compound suspension. And the test was performed according to the method 1).
1) 7 days after laser irradiation, 0.1 mL of 10% fluorescein was injected into rat tail vein and fluorescein angiography was performed.
2) When the fluorescent leakage was not detected in the fluorescent angiography, the spot was judged to be a negative spot. When the fluorescent leakage was detected, the spot was judged to be a positive spot. When the fluorescent leakage was detected as a little leakage, two spots were counted as one positive spot.
3) The neovascular incidence rate was calculated according to the equation 1. According to the equation 2, the ratio of neovascular incidence rate in test compound group to vehicle group was calculated. Neovascular incidence rate(%)=(Positive spots/all spots)×100 (Equation 1) Angiogenic inhibition ratio in test compound group(%)=(1−Ax/Ao)×100 (Equation 2)
Ao: Neovascular incidence rate in vehicle group (control group)
Ax: Neovascular incidence rate in test compound group

For the compound `CCCC(=O)Oc1ccc(-c2ccc3c(c2COc2cc(F)ccc2C)C(C)=CC(C)(C)N3)c(OC)c1` [Compound 1-9, 6-(4-Butyryloxy-2-methoxyphenyl)-5-(5-fluoro-2-methylphenoxymethyl)-2,2,4-trimethyl-1,2-dihydroquinoline], in assay [1], the Emax stood at 79%. In assay [2], the “Angiogenic inhibition ratio (%)” value is listed as 31%.
For `COc1cc(OC(=O)c2ccncc2)ccc1-c1ccc2c(c1COc1cc(F)ccc1C)C(C)=CC(C)(C)N2` [Compound 1-33, 5-(5-Fluoro-2-methylphenoxymethyl)-6-[2-methoxy-4-(pyridin-4-ylcarbonyloxy)phenyl]-2,2,4-trimethyl-1,2-dihydroquinoline], in that order: 82% and 29%.
`COc1cc(OC(=O)N(C)C)ccc1-c1ccc2c(c1COc1cc(F)ccc1C)C(C)=CC(C)(C)N2` [Compound 6-3, 6-(4-Dimethylaminocarbonyloxy-2-methoxyphenyl)-5-(5-fluoro-2-methylphenoxymethyl)-2,2,4-trimethyl-1,2-dihydroquinoline] came in with an Emax in assay [1] of 83%. Further, in assay [2], the “Angiogenic inhibition ratio (%)” value amounted to 38%.
`COc1cc(OC(=O)N2CCOCC2)ccc1-c1ccc2c(c1COc1cc(F)ccc1C)C(C)=CC(C)(C)N2` [Compound 6-31, 5-(5-Fluoro-2-methylphenoxymethyl)-6-[2-methoxy-4-(morpholin-4-ylcarbonyloxy)phenyl]-2,2,4-trimethyl-1,2-dihydroquinoline]: the Emax in assay [1] was 86%. The “Angiogenic inhibition ratio (%)” value in assay [2] stood at 45%.
Consider `COc1ccc(OC(=O)c2ccco2)cc1-c1ccc2c(c1COc1cc(F)ccc1C)C(C)=CC(C)(C)N2` [Compound 1-17, 5-(5-Fluoro-2-methylphenoxymethyl)-6-[5-(furan-2-ylcarbonyloxy)-2-methoxyphenyl]-2,2,4-trimethyl-1,2-dihydroquinoline], for which the Emax in assay [1] is 84%. Moreover, the “Angiogenic inhibition ratio (%)” value in assay [2] is recorded as 35%.
The compound `COc1cc(OC(=O)c2cccnc2C)ccc1-c1ccc2c(c1COc1cc(F)ccc1C)C(C)=CC(C)(C)N2` [Compound 1-49, 5-(5-Fluoro-2-methylphenoxymethyl)-6-[2-methoxy-4-(2-methylpyridin-3-ylcarbonyloxy)phenyl]-2,2,4-trimethyl-1,2-dihydroquinoline] gave an Emax in assay [1] of 96%. In addition, the “Angiogenic inhibition ratio (%)” value in assay [2] is given as 23%.
As for `COc1cc(OC(=O)C(C)C)ccc1-c1ccc2c(c1COc1cc(F)ccc1C)C(C)=CC(C)(C)N2` [Compound 1-14, 5-(5-Fluoro-2-methylphenoxymethyl)-6-(4-isobutyryloxy-2-methoxyphenyl)-2,2,4-trimethyl-1,2-dihydroquinoline], the Emax in assay [1] is 79%. For the same compound, the “Angiogenic inhibition ratio (%)” value in assay [2] turned out to be 46%.
In the case of `COc1cc(OC(=O)c2cccnc2)ccc1-c1ccc2c(c1COC(=O)c1ccc(Br)s1)C(C)=CC(C)(C)N2` [Compound 1-160, 5-(5-Bromothiophen-2-ylcarbonyloxymethyl)-6-[2-methoxy-4-(pyridin-3-ylcarbonyloxy)phenyl]-2,2,4-trimethyl-1,2-dihydroquinoline], the Emax in assay [1] amounted to 88%.
The same measure, in the same setting: next, `CCCS(=O)(=O)Oc1ccc(-c2ccc3c(c2COC(=O)c2ccc(C)s2)C(C)=CC(C)(C)N3)c(OC)c1` [Compound 4-27, 6-(2-Methoxy-4-propylsulfonyloxyphenyl)-5-(5-methylthiophen-2-ylcarbonyloxymethyl)-2,2,4-trimethyl-1,2-dihydroquinoline]: 101%.
Consider `COc1ccccc1NCc1c(-c2ccc(OC(=O)c3ccccc3)cc2OC)ccc2c1C(C)=CC(C)(C)N2` [Compound 1-92, 6-(4-Benzoyloxy-2-methoxyphenyl)-5-(2-methoxyphenylaminomethyl)-2,2,4-trimethyl-1,2-dihydroquinoline], for which, in assay [1], the Emax came out at 79%.
In assay [1], `COc1cc(OC(=O)c2ccncc2)ccc1-c1ccc2c(c1CNc1cc(F)ccc1C)C(C)=CC(C)(C)N2` [Compound 1-119, 5-(5-Fluoro-2-methylphenylaminomethyl)-6-[2-methoxy-4-(pyridin-4-ylcarbonyloxy)phenyl]-2,2,4-trimethyl-1,2-dihydroquinoline] showed an Emax of 75%.
